{"source": "patent US8609723B2", "about": "(Beijing Dingguochangsheng Biotech., Co., Ltd., priority 2008, dated 2013)", "key": {"male ICR mice [1]": {"system": "male ICR mice", "experiment": "Tail suspension test in mice", "format": "in vivo", "details": "18.4 mg/kg single administration, vs control group", "description": "The tail suspension test was carried out for each of these groups on Days 3, 7 and 14 after administration, except that such experiment was not performed for the curcumin group on Day 14. Tails of the mice were taped on a special iron stand at 1 cm from the tips, whilst keeping the mice staying at a height of 50 cm from ground. Performance of the mice was observed within 6 min, and the accumulative immobile time within the last 4 min was recoded for each mouse."}, "male ICR mice [2]": {"system": "male ICR mice", "experiment": "Forced swimming test of mice", "format": "in vivo", "details": "18.4 mg/kg single administration, vs control group", "description": "The mice were forced to swim on Days 3, 7 and 14 after administration, except that such experiment was not performed for the curcumin group on Day 14.\nTwenty four hours before the formal test, the mice were placed into a round glass container (height: 25 cm, diameter: 10 cm) filled with water (depth: 10 cm) with a temperature of 24±1° C., and forced to conduct swim training for 15 min. Twenty four hours later, the mice were placed into the round glass container filled with water (depth: 10 cm) again and forced to swim for 6 min. The accumulative immobile time within the last 4 min was observed and recorded for each mouse. The immobile time is intended to mean the period within which the mouse stops to struggle, floats in the water and keeps immobile, or only makes a few slight movements that are necessary to keep its head floating on the surface of water."}, "[3]": {"system": "chronically stressed rats", "experiment": "Measurement of body temperature of chronically stressed rats", "format": "in vivo", "details": "for Body temperature after stress: chronic stress 21 days", "source_text": "(§1) The rats in the normal control group were raised normally under a condition without any stimulation except for weighing body weight, measuring body temperature, and subjected to sugar test. All of other groups were subjected to stimulations of same type and same strength. During the experiment, different types of stimulations were applied in an unpredictable manner, and the same type of stimulation was enhanced each time.\n(§2) The stress protocol was shown as follows: horizontally shaking at a high speed for 45 min; nipping tails (1 cm from the tail root): 1 min; depriving of water for 24 h; forbidding moving for 1.5 h; fasting for 24 h; stimulating with ice water (water temperature: 10° C.) for 5 min; electric shocking (1 mA, time course: is, 1 shock/min) the bottoms of feet for 30 min; changing cages and raising separately for 24 h; forbidding moving for 2 h; nipping tails (1 cm from the root of tail) for 1 min; depriving of water for 24 h; horizontally shaking at a high speed for 1.5 h; fasting for 24 h; nipping tails (1 cm from the tail root): 1 min; electric shocking (1 mA, time course: 1 s, 1 shock/min) the bottoms of feet for 40 min; stimulating with ice water for 5 min; changing cages and raising separately for 24 h; horizontally shaking at a high speed for 60 min; electric shocking (1 mA, time course: 1 s, 1 shock/min) the bottoms of feet for 50 min; depriving of water for 24 h; forbidding moving for 2.5 h; and 24 h social isolation.\nThe front part of a digital thermometer was coated with liquid paraffin, and then inserted into the anus of a rat with a depth of approximately 1 cm. The temperature was read twice accordingly and averaged."}, "[4]": {"system": "chronically stressed rats", "experiment": "Sugar water test of rats (chronic stress model)", "format": "in vivo", "details": "table title says (%)", "source_text": "as §1\nas §2, with “The chronic stress course was 20 days in total, once per day, from 9:00 AM to 2:00 PM. The” for “The”\nBefore this experiment, animals were trained to adapt to drink sugar water in a to quite room. Two bottles were placed simultaneously into each cage. For the first 24 h, these two bottles were both filled with 1% sugar water; and for the next 24 h, one of them was filled with 1% sugar water and the other was filled with pure water. Then after 23-hour water deprivation, the animals were tested for basic sugar water/pure water consumption. One bottle of 1% sugar water and one bottle of pure water were provided to each rat simultaneously. One hour later, the two bottles were weighed, and the total liquid consumption, sugar water consumption, pure water consumption, and the sugar water preference=sugar water consumption/total liquid consumption×100% were calculated, respectively. The experiment was performed after continuous administration of curcumin for 14 days."}, "S-180 sarcoma cells": {"system": "S-180 sarcoma cells", "experiment": "Antitumor experiment of tumor S-180-bearing mice", "format": "in vivo", "details": "7-day dosage by single administration, 7 days", "source_text": "During the experiment, the mice were inoculated with S-180 sarcoma cells (×10^7) in armpits. […] Seven days later, the mice were sacrificed by decollation. The tumors were removed, and the mice and the tumors were weighed separately."}, "S-180 cells": {"system": "S-180 cells", "experiment": "Effect on apoptosis of tumor cells, cell cycle by flow cytometry", "format": "in vivo, mice", "details": "sarcoma cell cycle, S-180 tumor fluid, 7 days", "source_text": "During the experiment, the mice were inoculated with S-180 cells (×10^7) in armpits. Seven days later, the mice were sacrificed by decollation and the tumors were removed. Tumor fluid was collected from tumors, and used for determining cell cycle by flow cytometry after ethanol fixation."}, "Bladder cancer cell": {"system": "Bladder cancer cell", "experiment": "Inhibitory effect on tumor cells, MTT method", "format": "cell-based", "details": "25 μM, 72 h", "description": "(§3) The tumor cells with a stable passage feature, including Hela tumor cells, renal cancer cells, breast cancer cells, gastric cancer cells, rectal cancer cells, pulmonary cancer cells, hepatic cancer cells HepG2, prostate cancer cells, esophageal cancer cells, sarcoma cells, glioma cells, melanoma cells, lymphoma cells, and bladder cancer cells, were counted under a microscope (×10^4), and cultured in a 96-well plate under CO2 saturated water vapor for 24 h."}, "Breast cancer cell BT474": {"system": "Breast cancer cell BT474", "experiment": "Inhibitory effect on tumor cells, MTT method", "format": "cell-based", "details": "Breast cancer cell BT474, 25 μM, 72 h", "description": "as §3"}, "[5]": {"system": "Hepatic cancer cell HepG2", "experiment": "Inhibitory effect on tumor cells, MTT method", "format": "cell-based", "details": "Hepatic cancer cell HepG2, 25 μM, 72 h", "description": "as §3"}, "[6]": {"details": "4.6 mg/kg subcutaneous once every 7 days"}, "[7]": {"details": "9.2 mg/kg subcutaneous once every 7 days"}, "[8]": {"details": "18.4 mg/kg subcutaneous once every 7 days"}, "[9]": {"details": "4.6 mg/kg, the values are: sugar water preference"}}, "data": [{"substance": "curcumin decanoate [long acting curcumin]", "values": [{"measurement": "reduced the accumulative immobile time (tail suspension)", "setting": "male ICR mice [1]; 3 days after administration", "value": 50.7, "unit": "%"}, {"measurement": "reduced the accumulative immobile time (tail suspension)", "setting": "male ICR mice [1]; 7 days after administration", "value": 59.5, "unit": "%"}, {"measurement": "reduced the accumulative immobile time (tail suspension)", "setting": "male ICR mice [1]; 14 days after administration", "value": 31.8, "unit": "%"}, {"measurement": "reduced the accumulative immobile time (forced swimming, mice)", "setting": "male ICR mice [2]; 3 days after administration", "value": 62.1, "unit": "%"}, {"measurement": "reduced the accumulative immobile time (forced swimming, mice)", "setting": "male ICR mice [2]; 7 days after administration", "value": 74.7, "unit": "%"}, {"measurement": "reduced the accumulative immobile time (forced swimming, mice)", "setting": "male ICR mice [2]; 14 days after administration", "value": 37.8, "unit": "%"}, {"measurement": "Body temperature before stress", "setting": "[3]; [6]", "value": "37.06 ± 0.125", "unit": "°C"}, {"measurement": "Body temperature after stress", "setting": "[3]; [6]", "value": "37.40 ± 0.079", "unit": "°C"}, {"measurement": "Body temperature before stress", "setting": "[3]; [7]", "value": "37.06 ± 0.158", "unit": "°C"}, {"measurement": "Body temperature after stress", "setting": "[3]; [7]", "value": "37.45 ± 0.074", "unit": "°C"}, {"measurement": "Body temperature before stress", "setting": "[3]; [8]", "value": "37.00 ± 0.122", "unit": "°C"}, {"measurement": "Body temperature after stress", "setting": "[3]; [8]", "value": "37.48 ± 0.088", "unit": "°C"}, {"measurement": "Sugar water volume after stress", "setting": "[4]; [9]", "value": "54.1 ± 4.7", "unit": "%"}, {"measurement": "Sugar water volume before stress", "setting": "[4]; [9]", "value": "60.2 ± 9.2", "unit": "%"}, {"measurement": "Sugar water volume after stress", "setting": "[4]; 9.2 mg/kg", "value": "72.8 ± 3.1", "unit": "%"}, {"measurement": "Sugar water volume before stress", "setting": "[4]; 9.2 mg/kg, the values are: sugar water preference", "value": "60.4 ± 9.2", "unit": "%"}, {"measurement": "Sugar water volume after stress", "setting": "[4]; 18.4 mg/kg", "value": "71.6 ± 2.3", "unit": "%"}, {"measurement": "Sugar water volume before stress", "setting": "[4]; 18.4 mg/kg, the values are: sugar water preference", "value": "66.8 ± 8.6", "unit": "%"}, {"measurement": "inhibitory rate of tumors", "setting": "S-180 sarcoma cells; high dosage group", "value": 50.1, "unit": "%"}, {"measurement": "inhibitory rate of tumors", "setting": "S-180 sarcoma cells; low dosage group", "value": 28.5, "unit": "%"}, {"measurement": "inhibitory rate of tumors", "setting": "S-180 sarcoma cells; medium dosage group", "value": 57.8, "unit": "%"}, {"measurement": "APO % (apoptosis level of tumor cells)", "setting": "S-180 cells", "value": 44.7, "unit": "%"}, {"measurement": "G1 %", "setting": "S-180 cells", "value": 64.9, "unit": "%"}, {"measurement": "G2 %", "setting": "S-180 cells", "value": 1.0, "unit": "%"}, {"measurement": "S %", "setting": "S-180 cells", "value": 34.1, "unit": "%"}, {"measurement": "Inhibitory rate (%)", "setting": "Bladder cancer cell", "value": "55.2 ± 1.0", "unit": "%"}, {"measurement": "Inhibitory rate (%)", "setting": "Breast cancer cell BT474", "value": "52.7 ± 1.6", "unit": "%"}, {"measurement": "Inhibitory rate (%)", "setting": "[5]", "value": "43.7 ± 1.4", "unit": "%"}]}]}
